In US20240285583A1, “PHARMACEUTICAL COMPOSITION COMPRISING 1-(3-CYANO-1-ISOPROPYL-INDOL-5-YL)PYRAZOLE-4-CARBOXYLIC ACID” (LG CHEM, LTD., priority 2021, published 2024):

Columns and labels:
[1] = tested on: gout patient group; experiment: Phase 2 clinical trial (NCT03934099): blood uric acid concentration in gout patients; type: in vivo, human
Procedure: (§1) A phase 2 clinical trial was conducted to analyze the dosage, TEAEs, and the like when the compound of Formula 1 (1-(3-cyano-1-isopropyl-indol-5-yl)pyrazol-4-carboxylic acid; compound of Example 1) is administered to a gout patient group.
• 1. Written informed consent (signed and dated) provided voluntarily prior to the start of the study. • 2. Male or female aged from 18 to 75 • 3. History or experience of hyperuricemia and gout in accordance with the criteria of the American College of Rheumatology. • 4. Self-reported history of 2 or more gout flare within 12 months prior to screening visit (Visit 1). • 5. Blood uric acid (sUA) levels at Visit 1 of 6.0 mg/dL or more in subjects who were receiving urate lower therapy (ULT) with allopurinol, febuxostat, probenecid, or lesinurad; and SUA levels at Visit 1 of 8.0 mg/dL or more and 12.0 mg/dL or less in subjects who had no history of receiving the ULT or were not receiving the ULT at visit 1. • 6. SUA levels of 8.0 mg/dL or more and 12.0 mg/dL or less at Visit 3. • 7. Body mass index of 42 kg/m^2 or less at screening visit (Visit 1). • 8. Estimated glomerular filtration rate (eGFR) of 60 mL/min/1.73 m^2 or more at screening visit (Visit 1). • 9. Subjects of childbearing potential with a negative pregnancy test result at screening visit (Visit 1). […]

[2] = tested on: gout patient group; experiment: Phase 2 clinical trial (NCT03934099): analysis of TEAEs; type: in vivo, human
Procedure: as §1
Selected patients gave written informed consent according to institutional and study procedures. After screening and wash-out processes (days 26 to 33 pre-dose), a total of 156 patients were finally enrolled, and each patient was randomly assigned to 5 groups of 50 mg, 100 mg and 200 mg dosing groups of the compound of Example 1, a placebo group, and a febuxostat group. Patients in each group self-administered 1 tablet of a combination drug (colchicine, 0.6 mg/day) for the prevention of gout flare along with the assigned investigational drug (50 mg, 100 mg and 200 mg doses of the compound of Example 1, placebo, and 40 mg of febuxostat group) orally, once every morning, at about the same time each day, with water, regardless of food.
The drug was administered for 84 days by setting the first dosing day of the drug as day 1, and basic tests, blood uric acid concentration and the like were measured at clinic visits on 14 days (week 2), 28 days (week 4), 56 days (week 8), and 84 days (week 12) during the dosing period to determine whether TEAEs occurred. After the end of drug administration, a safety follow-up was performed for an additional 2 weeks (98 days, week 14).
Among all patient groups participating in the clinical trial, although the administration was stopped for 3 patients due to headache, gout flare in the left ankle, and liver dysfunction in the 100 mg dosing group of Example 1 and for 1 patient due to an increase in hepatic enzyme in the 200 mg dosing group, no significant treatment emergency adverse event (TEAE) was found in the remaining patient groups.

[3] = tested on: gout patients; conditions: patient group receiving the drug, previous results; cited from earlier work

| SMILES | blood uric acid lowering effect compared to febuxostat ([1]; 50 mg, 100 mg, 200 mg vs febuxostat 40 mg) | blood uric acid concentration kept within the normal range during the dosing period ([1]; doses of 50 mg, 100 mg and 200 mg, reached within 2 weeks) | incidence of TEAEs ([2]; 50 mg, 100 mg and 200 mg groups, vs placebo and febuxostat groups) | patients for whom administration was stopped ([2]; 100 mg dosing group, headache, gout flare in the left ankle, liver dysfunction) | patients for whom administration was stopped ([2]; 200 mg dosing group, increase in hepatic enzyme) | adverse cardiovascular TEAEs ([2]; all dosing groups) | patients with a blood uric acid concentration of less than 6 mg/dL [3] |
| --- | --- | --- | --- | --- | --- | --- | --- |
| CC(C)n1cc(C#N)c2cc(-n3cc(C(=O)O)cn3)ccc21 [Example 1, 1-(3-cyano-1-isopropyl-indol-5-yl)pyrazole-4-carboxylic acid] | equivalent or higher blood uric acid lowering effect | < 6.0 mg/dL | did not show a significant difference in the incidence of TEAEs | 3 patients | 1 patient | no reports of adverse cardiovascular TEAEs having a causal relationship |  |
| Oc1ncnc2[nH]ncc12 [allopurinol] |  |  |  |  |  |  | about 40% |
